# Test results: patent US20140045189A1 (priority 2009, published 2014)
# Read-outs that look alike come from different tables or passages of the source.
# Tests used:
# [1] = system: Listeria monocytogenes; details: 30 min, TSA-Y, control 2.78×10^9 CFU/ml
# Description: (§1) Listeria monocytogenes EGDe (1/2a, internal number 2964) is used as a model organism for Gram-positive bacteria and as a DNA quantification standard for real-time PCR. Salmonella enterica serovar Typhimurium (NCTC 12023) is used as a model organism for Gram-negative bacteria and as a DNA quantification standard for real-time PCR. The bacteria are maintained at −80° C. using MicroBank™ technology (Pro-Lab Diagnostics, Richmont Hill, Canada) and are part of the collection of bacterial strains at the Institute of Milk Hygiene, Milk Technology and Food Science, University of Veterinary Medicine, Vienna, Austria. All bacterial strains are grown overnight in tryptone soya broth with 0.6% (w/v) yeast extract (TSB-Y; Oxoid, Hampshire, United Kingdom) at the respective optimal growth temperatures (37° C., L. monocytogenes and 42° C., S. Typhimurium).
# (§2) The influence of different MgCl2 concentrations on the viability of Listeria monocytogenes and Salmonella Typhimurium is investigated. The target organisms are incubated for 30 min with 3 different concentrations of MgCl2 (1 M, 2 M and 3 M) and at 3 different temperatures (35° C., 38° C. and 45° C.) and the CFUs on TSA-Y agar plates after the treatment are compared with the control sample.
# [2] = system: Salmonella Typhimurium; details: 30 min, TSA-Y, control […]10^9 CFU/ml
# Description: as §1, §2
compound,measurement,setting,value
"[Cl-].[Cl-].[Mg+2] [MgCl2, magnesium chloride]",CFU/ml of L. monocytogenes after treatment,"[1]; 1 M MgCl2, 35° C.",3.86×10^9 CFU/ml
same,CFU/ml of L. monocytogenes after treatment,"[1]; 1 M MgCl2, 38° C.",4.06×10^9 CFU/ml
same,CFU/ml of L. monocytogenes after treatment,"[1]; 1 M MgCl2, 45° C.",4.39×10^9 CFU/ml
same,CFU/ml of L. monocytogenes after treatment,"[1]; 2 M MgCl2, 35° C.",3.10×10^9 CFU/ml
same,CFU/ml of L. monocytogenes after treatment,"[1]; 2 M MgCl2, 38° C.",3.64×10^9 CFU/ml
same,CFU/ml of L. monocytogenes after treatment,"[1]; 2 M MgCl2, 45° C.",1.68×10^9 CFU/ml
same,CFU/ml of L. monocytogenes after treatment,"[1]; 3 M MgCl2, 35° C.",1.76×10^9 CFU/ml
same,CFU/ml of L. monocytogenes after treatment,"[1]; 3 M MgCl2, 38° C.",8.5×10^8 CFU/ml
same,CFU/ml of L. monocytogenes after treatment,"[1]; 3 M MgCl2, 45° C.",1.5×10^8 CFU/ml
same,CFU/ml of S. Typhimurium after treatment,"[2]; 1 M MgCl2, 35° C.",1.15×10^9 CFU/ml
same,CFU/ml of S. Typhimurium after treatment,"[2]; 1 M MgCl2, 38° C.",8.33×10^8 CFU/ml
same,CFU/ml of S. Typhimurium after treatment,"[2]; 1 M MgCl2, 45° C.",4.1×10^8 CFU/ml
same,CFU/ml of S. Typhimurium after treatment,"[2]; 2 M MgCl2, 35° C.",2.3×10^8 CFU/ml
same,CFU/ml of S. Typhimurium after treatment,"[2]; 2 M MgCl2, 38° C.",1.35×10^8 CFU/ml
same,CFU/ml of S. Typhimurium after treatment,"[2]; 3 M MgCl2, 35° C.",5.75×10^7 CFU/ml
same,CFU/ml of S. Typhimurium after treatment,"[2]; 3 M MgCl2, 38° C.",2.0×10^7 CFU/ml
